Source: the NIST ThermoML archive (doi:10.1007/s10765-008-0410-4)
Numbers after ± are expanded uncertainties.

Settings: Liquid, Vibrating tube method

For `CCCCn1cc[n+](C)c1.F[B-](F)(F)F` [1-butyl-3-methylimidazolium tetrafluoroborate], the mass density (298.15 K, 280 kPa) was 1211.19 ± 1.3 kg/m3, the mass density (298.15 K, 5640 kPa) was 1213.63 ± 1.4 kg/m3 and the mass density (298.15 K, 10620 kPa) was 1215.85 ± 1.4 kg/m3. The mass density (298.15 K, 15340 kPa) was 1217.77 ± 1.4 kg/m3, the mass density (298.15 K, 20640 kPa) was 1220.29 ± 1.5 kg/m3 and the mass density (298.15 K, 25270 kPa) was 1222.18 ± 1.5 kg/m3. For the same compound, the mass density (298.15 K, 30050 kPa) was 1223.93 ± 1.6 kg/m3, the mass density (298.15 K, 35410 kPa) was 1226.07 ± 1.6 kg/m3 and the mass density (298.15 K, 39610 kPa) was 1227.81 ± 1.7 kg/m3. For the same compound, the mass density (323.15 K, 730 kPa) was 1192.89 ± 1.3 kg/m3, the mass density (323.15 K, 5640 kPa) was 1195.3 ± 1.3 kg/m3 and the mass density (323.15 K, 10610 kPa) was 1197.71 ± 1.4 kg/m3. For the same compound, the mass density (323.15 K, 15440 kPa) was 1200.01 ± 1.4 kg/m3, the mass density (323.15 K, 20460 kPa) was 1202.37 ± 1.4 kg/m3 and the mass density (323.15 K, 25360 kPa) was 1204.64 ± 1.5 kg/m3. The mass density (323.15 K, 30740 kPa) was 1207.09 ± 1.5 kg/m3, the mass density (323.15 K, 35650 kPa) was 1209.29 ± 1.6 kg/m3 and the mass density (323.15 K, 39850 kPa) was 1211.14 ± 1.6 kg/m3. It also gave a mass density (348.15 K, 210 kPa) of 1174.44 ± 1.2 kg/m3, a mass density (348.15 K, 5960 kPa) of 1177.75 ± 1.3 kg/m3 and a mass density (348.15 K, 10480 kPa) of 1180.3 ± 1.3 kg/m3. The mass density (348.15 K, 15430 kPa) was 1182.72 ± 1.3 kg/m3, the mass density (348.15 K, 20870 kPa) was 1185.63 ± 1.4 kg/m3 and the mass density (348.15 K, 25850 kPa) was 1188.16 ± 1.4 kg/m3. For the same compound, the mass density (348.15 K, 30110 kPa) was 1190.19 ± 1.5 kg/m3, the mass density (348.15 K, 35110 kPa) was 1192.88 ± 1.5 kg/m3 and the mass density (348.15 K, 39610 kPa) was 1194.77 ± 1.6 kg/m3. For the same compound, the mass density (373.15 K, 470 kPa) was 1157.24 ± 1.2 kg/m3, the mass density (373.15 K, 5350 kPa) was 1160.25 ± 1.2 kg/m3 and the mass density (373.15 K, 10080 kPa) was 1163.09 ± 1.2 kg/m3. For the same compound, the mass density (373.15 K, 15710 kPa) was 1166.39 ± 1.3 kg/m3, the mass density (373.15 K, 20970 kPa) was 1169.38 ± 1.3 kg/m3 and the mass density (373.15 K, 25820 kPa) was 1172.07 ± 1.4 kg/m3. For the same compound, the mass density (373.15 K, 30120 kPa) was 1174.39 ± 1.4 kg/m3, the mass density (373.15 K, 35530 kPa) was 1177.22 ± 1.5 kg/m3 and the mass density (373.15 K, 39820 kPa) was 1179.41 ± 1.5 kg/m3. The mass density (398.15 K, 870 kPa) was 1141.05 ± 1.1 kg/m3, the mass density (398.15 K, 6670 kPa) was 1144.53 ± 1.2 kg/m3 and the mass density (398.15 K, 10490 kPa) was 1147.07 ± 1.2 kg/m3. For the same compound, the mass density (398.15 K, 15730 kPa) was 1150.32 ± 1.2 kg/m3, the mass density (398.15 K, 20980 kPa) was 1153.78 ± 1.3 kg/m3 and the mass density (398.15 K, 25140 kPa) was 1156.3 ± 1.3 kg/m3. For the same compound, the mass density (398.15 K, 30890 kPa) was 1159.52 ± 1.4 kg/m3, the mass density (398.15 K, 35810 kPa) was 1162.4 ± 1.4 kg/m3 and the mass density (398.15 K, 39560 kPa) was 1164.38 ± 1.4 kg/m3.
